Laboratory results taken from patent publication US20170137410A1, “FUSED CYCLOALKYL-PYRIMIDINE COMPOUNDS AND USES THEREOF” (Medivation Technologies, Inc., priority 2014, published 2017).

How the values were obtained:
FLT3 = molecular target: T1, FLT3 (Homo sapiens, UniProt P36888); assay: HotSpot kinase assay against FLT3; format: biochemical; details: HotSpot 33P assay, ATP 10 μM
T1 sequence (P36888 27-993): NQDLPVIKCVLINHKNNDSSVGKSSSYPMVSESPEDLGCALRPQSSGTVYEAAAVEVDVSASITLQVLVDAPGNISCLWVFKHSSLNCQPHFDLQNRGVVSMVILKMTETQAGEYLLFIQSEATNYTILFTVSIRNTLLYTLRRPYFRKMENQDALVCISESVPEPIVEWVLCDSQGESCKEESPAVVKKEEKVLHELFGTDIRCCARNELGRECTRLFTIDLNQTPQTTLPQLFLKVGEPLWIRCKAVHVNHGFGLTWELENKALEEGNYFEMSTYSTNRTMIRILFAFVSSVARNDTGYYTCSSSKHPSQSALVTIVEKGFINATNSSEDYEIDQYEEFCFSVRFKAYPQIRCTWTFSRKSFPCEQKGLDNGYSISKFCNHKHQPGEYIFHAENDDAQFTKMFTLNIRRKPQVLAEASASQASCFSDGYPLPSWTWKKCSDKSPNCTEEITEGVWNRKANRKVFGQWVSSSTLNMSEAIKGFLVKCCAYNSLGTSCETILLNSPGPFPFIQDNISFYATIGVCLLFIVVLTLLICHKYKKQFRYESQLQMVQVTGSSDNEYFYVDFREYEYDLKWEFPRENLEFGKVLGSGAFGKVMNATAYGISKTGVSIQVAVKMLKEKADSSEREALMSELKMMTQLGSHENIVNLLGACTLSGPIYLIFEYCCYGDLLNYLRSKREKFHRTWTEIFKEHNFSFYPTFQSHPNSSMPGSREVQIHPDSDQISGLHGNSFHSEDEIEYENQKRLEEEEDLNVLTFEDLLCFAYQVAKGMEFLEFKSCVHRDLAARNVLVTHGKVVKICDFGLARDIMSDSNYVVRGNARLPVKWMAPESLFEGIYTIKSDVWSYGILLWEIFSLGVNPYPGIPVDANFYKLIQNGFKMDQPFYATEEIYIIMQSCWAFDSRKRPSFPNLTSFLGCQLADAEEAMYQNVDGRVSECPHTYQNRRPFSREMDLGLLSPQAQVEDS
Protocol: Kinase assays were performed using test compounds against a panel of FLT3 kinases: FLT3; FLT3 (D835Y); and FLT3 (ITD). Compounds were prepared as 10 mM stock solutions in DMSO prior to use in the assay. Each compound was tested at 10 concentrations with three-fold serial dilution starting at 1 μM against the three kinases. The control compound, staurosporine, was tested at 10 concentrations with four-fold serial dilution starting at 20 μM. IC50 values and curve fits were obtained using Prism (GraphPad Software). The screening was performed using the “HotSpot” assay platform. The assay measures the conversion of a peptide substrate to ^33P-labelled phosphorylated product. Briefly, specific kinase/substrate pairs along with required cofactors were prepared in reaction buffer. Specifically, the substrate was prepared in reaction buffer (20 mM Hepes, pH 7.5; 10 mM MgCl2; 1 mM EGTA; 0.02% Brij35; 0.02 mg/mL BSA; 0.1 mM Na3VO4; 2 mM DTT; 1% DMSO), followed by delivery of any required cofactor to the resulting substrate solution. The corresponding kinase was delivered into the substrate solution and the reaction mixture was mixed gently. Compound was delivered into the reaction mixture, followed 15-20 min later by addition of a mixture of ATP (Sigma, St. Louis Mo.) and ^33P ATP (specific activity 0.01 μCi/μL final; Perkin Elmer, Waltham, Mass.) to a final concentration of 10 μM to initiate the reaction. Reactions were carried out at RT for 120 min, followed by spotting of the reactions onto P81 ion exchange filter paper (Whatman #3698-915; Whatman Inc., Piscataway, N.J.). Unbound phosphate was removed by extensive washing of filters in 0.75% phosphoric acid. […] The percent of enzyme inhibition was calculated based on the percent of remaining kinase activity. IC50 values were determined.

ROS/ROS1 = ROS/ROS1 (Homo sapiens, UniProt P08922); assay: HotSpot kinase assay against ROS/ROS1; format: biochemical; details: HotSpot 33P assay, ATP 10 μM-30 μM
Protocol: The screening was performed using the “HotSpot” assay platform. The assay measures the conversion of a peptide substrate to ^33P-labelled phosphorylated product. Briefly, specific kinase/substrate pairs along with required cofactors were prepared in reaction buffer. Specifically, the substrate was prepared in reaction buffer (20 mM Hepes, pH 7.5; 10 mM MgCl2; 1 mM EGTA; 0.02% Brij35; 0.02 mg/mL BSA; 0.1 mM Na3VO4; 2 mM DTT; 1% DMSO), followed by delivery of any required cofactor to the resulting substrate solution. The corresponding kinase was delivered into the substrate solution and the reaction mixture was mixed gently. Compound was delivered into the reaction mixture, followed 15-20 minutes later by addition of a mixture of ATP (Sigma, St. Louis Mo.) and ^33P ATP (specific activity 0.01 μCi/μL final; Perkin Elmer, Waltham, Mass.) to a final concentration of 10 μM-30 μM to initiate the reaction. Reactions were carried out at RT for 120 min, followed by spotting of the reactions onto P81 ion exchange filter paper (Whatman #3698-915; Whatman Inc., Piscataway, N.J.). Unbound phosphate was removed by extensive washing of filters in 0.75% phosphoric acid. […] The percent of enzyme inhibition was calculated based on the percent of remaining kinase activity. IC50 values and curve fits were obtained using Prism (GraphPad Software).

Chain of ROS/ROS1 (P08922 28-2347): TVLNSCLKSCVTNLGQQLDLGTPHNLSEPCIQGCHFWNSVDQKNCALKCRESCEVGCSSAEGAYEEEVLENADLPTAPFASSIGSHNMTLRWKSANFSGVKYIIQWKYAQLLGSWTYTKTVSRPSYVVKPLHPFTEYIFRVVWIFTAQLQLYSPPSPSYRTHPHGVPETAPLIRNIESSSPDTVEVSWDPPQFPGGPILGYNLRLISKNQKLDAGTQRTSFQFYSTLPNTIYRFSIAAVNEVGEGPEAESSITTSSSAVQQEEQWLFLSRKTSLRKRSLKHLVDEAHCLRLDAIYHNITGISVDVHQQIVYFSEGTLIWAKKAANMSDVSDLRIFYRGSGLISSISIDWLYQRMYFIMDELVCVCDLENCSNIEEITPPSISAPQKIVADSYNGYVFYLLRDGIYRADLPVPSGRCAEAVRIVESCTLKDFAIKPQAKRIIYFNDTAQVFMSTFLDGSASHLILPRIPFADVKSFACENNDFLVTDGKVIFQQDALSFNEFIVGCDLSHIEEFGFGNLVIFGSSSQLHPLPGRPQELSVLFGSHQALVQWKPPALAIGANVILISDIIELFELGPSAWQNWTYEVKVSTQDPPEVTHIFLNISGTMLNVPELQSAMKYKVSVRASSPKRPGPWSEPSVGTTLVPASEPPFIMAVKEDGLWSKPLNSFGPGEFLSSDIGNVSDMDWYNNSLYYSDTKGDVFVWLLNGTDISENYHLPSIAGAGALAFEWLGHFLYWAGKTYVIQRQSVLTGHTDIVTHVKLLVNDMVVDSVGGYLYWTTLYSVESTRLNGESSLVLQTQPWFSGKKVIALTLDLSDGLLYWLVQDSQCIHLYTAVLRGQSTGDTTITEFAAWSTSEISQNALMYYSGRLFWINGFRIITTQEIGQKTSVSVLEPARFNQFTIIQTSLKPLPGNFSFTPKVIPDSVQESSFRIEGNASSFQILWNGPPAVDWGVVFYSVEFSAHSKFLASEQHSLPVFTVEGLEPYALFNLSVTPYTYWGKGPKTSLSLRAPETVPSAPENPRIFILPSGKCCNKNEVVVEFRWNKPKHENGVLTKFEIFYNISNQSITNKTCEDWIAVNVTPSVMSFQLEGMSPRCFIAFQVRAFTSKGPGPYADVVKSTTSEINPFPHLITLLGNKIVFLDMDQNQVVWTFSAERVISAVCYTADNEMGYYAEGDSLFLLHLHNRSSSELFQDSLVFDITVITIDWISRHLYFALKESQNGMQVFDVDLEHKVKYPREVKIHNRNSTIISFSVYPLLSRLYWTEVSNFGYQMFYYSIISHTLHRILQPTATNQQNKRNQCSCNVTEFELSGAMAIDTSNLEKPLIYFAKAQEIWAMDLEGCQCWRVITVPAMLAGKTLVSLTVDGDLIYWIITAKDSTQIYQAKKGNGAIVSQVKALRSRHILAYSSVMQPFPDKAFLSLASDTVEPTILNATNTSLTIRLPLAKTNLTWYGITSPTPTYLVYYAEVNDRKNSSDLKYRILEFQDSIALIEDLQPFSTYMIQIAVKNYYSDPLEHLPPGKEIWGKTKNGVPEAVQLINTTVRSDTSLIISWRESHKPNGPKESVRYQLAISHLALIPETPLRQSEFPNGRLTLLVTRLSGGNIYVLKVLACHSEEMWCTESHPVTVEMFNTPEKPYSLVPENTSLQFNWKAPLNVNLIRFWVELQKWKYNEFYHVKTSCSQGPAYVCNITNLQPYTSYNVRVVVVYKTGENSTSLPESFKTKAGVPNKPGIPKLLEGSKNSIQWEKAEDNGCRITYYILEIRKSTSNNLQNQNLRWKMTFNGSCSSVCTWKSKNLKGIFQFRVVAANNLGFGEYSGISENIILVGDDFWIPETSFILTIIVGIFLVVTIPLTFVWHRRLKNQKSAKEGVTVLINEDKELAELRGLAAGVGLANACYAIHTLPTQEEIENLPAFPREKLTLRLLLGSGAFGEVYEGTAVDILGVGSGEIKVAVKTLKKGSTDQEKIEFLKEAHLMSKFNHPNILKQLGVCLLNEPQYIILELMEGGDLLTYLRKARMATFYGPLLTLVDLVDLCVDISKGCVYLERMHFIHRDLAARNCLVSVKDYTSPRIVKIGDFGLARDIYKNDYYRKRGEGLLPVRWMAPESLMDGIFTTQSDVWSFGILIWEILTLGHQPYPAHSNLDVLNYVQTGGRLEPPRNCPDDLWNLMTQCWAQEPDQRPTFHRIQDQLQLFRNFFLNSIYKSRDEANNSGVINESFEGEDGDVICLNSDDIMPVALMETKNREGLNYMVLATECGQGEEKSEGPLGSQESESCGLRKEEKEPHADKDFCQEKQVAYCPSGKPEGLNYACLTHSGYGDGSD

SMILES: CC1(C(=O)N2CCC(F)(F)CC2)CCCN1c1nc2c(c(Nc3cc(C4CCCC4)[nH]n3)n1)CCC2 (racemic) [compound 146, (1-(4-((5-cyclopentyl-1H-pyrazol-3-yl)amino)-6,7-dihydro-5H-cyclopenta[d]pyrimidin-2-yl)-2-methylpyrrolidin-2-yl)(4,4-difluoropiperidin-1-yl)methanone]
- IC50 (FLT3): 798 nM

SMILES: CC(C)c1cc(Nc2nc(N3CCC[C@H]3C(=O)N(C)c3nccs3)nc3c2CCC3)n[nH]1 [68b, (S)-1-(4-((5-isopropyl-1H-pyrazol-3-yl)amino)-6,7-dihydro-5H-cyclopenta[d]pyrimidin-2-yl)-N-methyl-N-(thiazol-2-yl)pyrrolidine-2-carboxamide]
- IC50 (ROS/ROS1): 4.41 nM
- IC50 (FLT3): 112 nM

SMILES: CC(C)(C)c1cc(Nc2nc(N3CCC[C@@H]3C(=O)N3CCC(F)(F)CC3)nc3c2CCC3)n[nH]1 [142a, (R)-(1-(4-((5-(tert-butyl)-1H-pyrazol-3-yl)amino)-6,7-dihydro-5H-cyclopenta[d]pyrimidin-2-yl)pyrrolidin-2-yl)(4,4-difluoropiperidin-1-yl)methanone]
- IC50 (ROS/ROS1): > 1000 nM
- IC50 (FLT3): > 1000 nM

SMILES: CC(C)(C)c1cc(Nc2nc(N3CCC[C@H]3C(=O)N3CCC(F)(F)CC3)nc3c2CCC3)n[nH]1 [142b, (S)-(1-(4-((5-(tert-butyl)-1H-pyrazol-3-yl)amino)-6,7-dihydro-5H-cyclopenta[d]pyrimidin-2-yl)pyrrolidin-2-yl)(4,4-difluoropiperidin-1-yl)methanone]
- IC50 (ROS/ROS1): > 1000 nM
- IC50 (FLT3): > 1000 nM

SMILES: CCC(=O)N1CCN(C(=O)[C@H]2CCCN2c2nc3c(c(Nc4cc(C5CCCC5)[nH]n4)n2)CCC3)CC1 [143a, 1-(4-((4-((5-cyclopentyl-1H-pyrazol-3-yl)amino)-6,7-dihydro-5H-cyclopenta[d]pyrimidin-2-yl)-D-prolyl)piperazin-1-yl)propan-1-one]
- IC50 (ROS/ROS1): 52.2 nM
- IC50 (FLT3): 13.9 nM

SMILES: CCC(=O)N1CCN(C(=O)[C@@H]2CCCN2c2nc3c(c(Nc4cc(C5CCCC5)[nH]n4)n2)CCC3)CC1 [143b, (S)-1-(4-((4-((5-cyclopentyl-1H-pyrazol-3-yl)amino)-6,7-dihydro-5H-cyclopenta[d]pyrimidin-2-yl)prolyl)piperazin-1-yl)propan-1-one]
- IC50 (ROS/ROS1): > 1000 nM
- IC50 (FLT3): 58 nM

SMILES: CCN(C(=O)[C@@H]1CCCN1c1nc2c(c(Nc3cc(C(C)(C)C)[nH]n3)n1)CCC2)c1nccs1 [144b, (S)-1-(4-((5-(tert-butyl)-1 H-pyrazol-3-yl)amino)-6,7-dihydro-5H-cyclopenta[d]pyrimidin-2-yl)-N-ethyl-N-(thiazol-2-yl)pyrrolidine-2-carboxamide]
- IC50 (ROS/ROS1): > 1000 nM
- IC50 (FLT3): > 1000 nM

SMILES: CCN(C(=O)[C@@H]1CCCN1c1nc2c(c(Nc3cc(C(C)C)[nH]n3)n1)CCC2)c1nccs1 [145b, (S)—N-ethyl-1-(4-((5-isopropyl-1H-pyrazol-3-yl)amino)-6,7-dihydro-5H-cyclopenta[d]pyrimidin-2-yl)-N-(thiazol-2-yl)pyrrolidine-2-carboxamide]
- IC50 (FLT3): 155 nM
